Reference: ChEMBL document CHEMBL1138731, “Conversion of human-selective PPARalpha agonists to human/mouse dual agonists: a molecular modeling analysis” (Bioorg Med Chem Lett, 2004)

Legend:
[1] = target: T1, Peroxisome proliferator-activated receptor alpha (Homo sapiens, UniProt Q07869); test: Transactivation activity for human Peroxisome proliferator activated receptor alpha
T1 sequence (Q07869 whole entry): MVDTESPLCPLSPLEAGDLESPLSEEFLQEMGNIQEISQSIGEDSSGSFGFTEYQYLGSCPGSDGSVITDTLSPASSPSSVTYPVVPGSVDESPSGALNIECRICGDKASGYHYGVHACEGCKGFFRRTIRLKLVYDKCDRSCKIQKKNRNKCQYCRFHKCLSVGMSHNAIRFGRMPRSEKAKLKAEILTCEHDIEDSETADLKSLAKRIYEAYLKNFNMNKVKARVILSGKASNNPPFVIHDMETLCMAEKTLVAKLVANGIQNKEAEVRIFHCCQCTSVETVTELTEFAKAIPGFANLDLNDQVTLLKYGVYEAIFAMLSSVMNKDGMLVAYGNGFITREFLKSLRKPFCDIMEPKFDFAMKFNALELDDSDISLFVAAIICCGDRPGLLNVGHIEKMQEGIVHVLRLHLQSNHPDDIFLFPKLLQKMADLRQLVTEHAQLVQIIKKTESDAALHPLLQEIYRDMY

[2] = target: T2, Peroxisome proliferator-activated receptor alpha (Mus musculus, UniProt P23204); test: Transactivation activity for mouse Peroxisome proliferator activated receptor alpha
T2 sequence (P23204 whole entry): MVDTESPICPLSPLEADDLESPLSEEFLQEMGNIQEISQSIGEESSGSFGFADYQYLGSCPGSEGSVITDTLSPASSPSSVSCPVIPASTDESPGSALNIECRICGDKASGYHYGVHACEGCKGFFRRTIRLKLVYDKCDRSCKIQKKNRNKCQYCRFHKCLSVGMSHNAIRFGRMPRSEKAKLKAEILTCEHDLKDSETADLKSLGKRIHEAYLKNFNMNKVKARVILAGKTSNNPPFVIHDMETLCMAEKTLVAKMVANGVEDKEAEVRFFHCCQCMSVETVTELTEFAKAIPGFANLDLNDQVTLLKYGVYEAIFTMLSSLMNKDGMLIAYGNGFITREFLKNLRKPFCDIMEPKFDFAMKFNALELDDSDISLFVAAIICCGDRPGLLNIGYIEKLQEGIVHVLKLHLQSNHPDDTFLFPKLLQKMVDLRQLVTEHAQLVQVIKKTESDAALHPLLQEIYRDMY

[3] = target: T1, Peroxisome proliferator-activated receptor alpha; test: In vitro inhibition of human Peroxisome proliferator activated receptor alpha
[4] = target: T2, Peroxisome proliferator-activated receptor alpha; test: In vitro inhibition of mouse Peroxisome proliferator activated receptor alpha
Mus musculus = test: Effect on level of triglyceride at a dose of 3 mg/kg in mice treated for 7 days; format: functional

EC50 [1] [nM] | EC50 [2] [nM] | IC50 [3] [nM] | IC50 [4] [nM] | SMILES | Triglyceride level (Mus musculus) [%]
39 | 1040 | 375 | 1460 | Cc1ccc(OC(C)(Cc2ccc(OCCc3nc(-c4ccc(-c5ccccc5)cc4)oc3C)cc2)C(=O)O)cc1 (centres undefined) | –
11 | 211 | 149 | 515 | Cc1oc(-c2ccccc2)nc1CCOc1ccc(CC(C)(Oc2ccc(C(C)(C)C)cc2)C(=O)O)cc1 (centres undefined) | –
49 | 91 | 133 | 146 | Cc1oc(-c2cccc(-c3ccccc3)c2)nc1CCOc1ccc(CC(C)(Oc2ccc(C(C)(C)C)cc2)C(=O)O)cc1 (centres undefined) | ~39
23 | 151 | 306 | 530 | Cc1ccc(OC(C)(Cc2ccc(OCCc3nc(-c4cccc(-c5ccccc5)c4)oc3C)cc2)C(=O)O)cc1 (centres undefined) | –
260 | 1170 | – | 700 | Cc1oc(-c2ccc(-c3ccccc3)cc2)nc1CCOc1ccc(CC(C)(Oc2ccc(C(C)(C)C)cc2)C(=O)O)cc1 (centres undefined) | –
– | 2340 | – | 7020 | Cc1oc(-c2ccc(-c3ccccc3)cc2)nc1CCOc1ccc(CC(C)(Oc2ccccc2)C(=O)O)cc1 (centres undefined) | –
7 | 585 | 64 | 1400 | Cc1ccc(OC(C)(Cc2ccc(OCCc3nc(-c4ccccc4)oc3C)cc2)C(=O)O)cc1 (centres undefined) | –
– | 173 | – | 404 | Cc1oc(-c2cccc(-c3ccccc3)c2)nc1CCOc1ccc(CC(C)(Oc2ccccc2)C(=O)O)cc1 (centres undefined) | –
– | – | – | – | Cc1oc(-c2ccccc2)nc1CCOc1ccc(CC(C)(Oc2ccccc2)C(=O)O)cc1 (centres undefined) | ~56
